From PubChem BioAssay (NCI)
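Dose response: 5 concentrations. Exposure: 48 h. Format: 96-well plates. Endpoint: linear interpolation; highest concentration if not reached. At the TGI there is no net growth.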

Key:
Assay in all cases: growth of human tumour cells (NCI), 48 h
CCRF-CEM leukemia = system: CCRF-CEM leukemia
MDA-MB-435 = system: MDA-MB-435
NCI-H23 lung = system: NCI-H23 lung
SK-MEL-2 melanoma = system: SK-MEL-2 melanoma
TK-10 renal = system: TK-10 renal
HOP-92 NSCLC = system: HOP-92 NSCLC
U251 CNS = system: U251 CNS
CAKI-1 renal = system: CAKI-1 renal
COLO 205 colon = system: COLO 205 colon
MOLT-4 leukemia = system: MOLT-4 leukemia
MCF7 breast = system: MCF7 breast
SW-620 colon = system: SW-620 colon
BT-549 breast = system: BT-549 breast
786-0 renal = system: 786-0 renal
MDA-MB-231 breast = system: MDA-MB-231 breast
SN12C renal = system: SN12C renal
PC-3 prostate = system: PC-3 prostate
NCI/ADR-RES ovarian = system: NCI/ADR-RES ovarian
ACHN renal = system: ACHN renal
MDA-N = system: MDA-N
OVCAR-5 ovarian = system: OVCAR-5 ovarian
K-562 leukemia = system: K-562 leukemia
RPMI-8226 leukemia = system: RPMI-8226 leukemia
IGROV1 ovarian = system: IGROV1 ovarian
NCI-H226 lung = system: NCI-H226 lung
OVCAR-8 ovarian = system: OVCAR-8 ovarian
KM12 colon = system: KM12 colon
NCI-H522 lung = system: NCI-H522 lung
EKVX NSCLC = system: EKVX NSCLC
SF-268 CNS = system: SF-268 CNS
UACC-62 melanoma = system: UACC-62 melanoma
OVCAR-4 ovarian = system: OVCAR-4 ovarian
NCI-H460 lung = system: NCI-H460 lung
HCC-2998 colon = system: HCC-2998 colon
LOX IMVI melanoma = system: LOX IMVI melanoma
SK-MEL-5 melanoma = system: SK-MEL-5 melanoma
UACC-257 melanoma = system: UACC-257 melanoma
A549 NSCLC = system: A549 NSCLC
SK-MEL-28 melanoma = system: SK-MEL-28 melanoma
SF-539 CNS = system: SF-539 CNS
T-47D breast = system: T-47D breast
SNB-19 CNS = system: SNB-19 CNS
A498 renal = system: A498 renal
SF-295 CNS = system: SF-295 CNS
RXF 393 renal = system: RXF 393 renal
MALME-3M melanoma = system: MALME-3M melanoma
OVCAR-3 ovarian = system: OVCAR-3 ovarian
UO-31 renal = system: UO-31 renal
M14 melanoma = system: M14 melanoma
SK-OV-3 ovarian = system: SK-OV-3 ovarian
HCT-15 colon = system: HCT-15 colon
HOP-62 NSCLC = system: HOP-62 NSCLC
HT29 colon = system: HT29 colon
HL-60(TB) leukemia = system: HL-60(TB) leukemia
HCT-116 colon = system: HCT-116 colon
DU-145 prostate = system: DU-145 prostate
HS 578T breast = system: HS 578T breast
SNB-75 CNS = system: SNB-75 CNS

With `CCCCCc1cccc(=O)o1` the TGI (CCRF-CEM leukemia) was > 100 µM, the TGI (MDA-MB-435) was > 100 µM and the TGI (NCI-H23 lung) was > 100 µM. The TGI (SK-MEL-2 melanoma) was > 100 µM, the TGI (TK-10 renal) was > 100 µM and the TGI (HOP-92 NSCLC) was > 100 µM. The TGI (U251 CNS) was > 100 µM, the TGI (CAKI-1 renal) was > 100 µM and the TGI (COLO 205 colon) was > 100 µM. For the same compound, the TGI (MOLT-4 leukemia) was > 100 µM, the TGI (MCF7 breast) was > 100 µM and the TGI (SW-620 colon) was > 100 µM. The TGI (BT-549 breast) was > 100 µM, the TGI (786-0 renal) was > 100 µM and the TGI (MDA-MB-231 breast) was > 100 µM. The TGI (SN12C renal) was > 100 µM, the TGI (PC-3 prostate) was > 100 µM and the TGI (NCI/ADR-RES ovarian) was > 100 µM. For the same compound, the TGI (ACHN renal) was > 100 µM, the TGI (MDA-N) was > 100 µM and the TGI (OVCAR-5 ovarian) was > 100 µM. For the same compound, the TGI (K-562 leukemia) was > 100 µM, the TGI (RPMI-8226 leukemia) was > 100 µM and the TGI (IGROV1 ovarian) was > 100 µM. For the same compound, the TGI (NCI-H226 lung) was > 100 µM, the TGI (OVCAR-8 ovarian) was > 100 µM and the TGI (KM12 colon) was > 100 µM. The TGI (NCI-H522 lung) was > 100 µM, the TGI (EKVX NSCLC) was > 100 µM and the TGI (SF-268 CNS) was > 100 µM. The TGI (UACC-62 melanoma) was > 100 µM, the TGI (OVCAR-4 ovarian) was > 100 µM and the TGI (NCI-H460 lung) was > 100 µM. The TGI (HCC-2998 colon) was > 100 µM, the TGI (LOX IMVI melanoma) was > 100 µM and the TGI (SK-MEL-5 melanoma) was > 100 µM. For the same compound, the TGI (UACC-257 melanoma) was > 100 µM, the TGI (A549 NSCLC) was > 100 µM and the TGI (SK-MEL-28 melanoma) was > 100 µM. The TGI (SF-539 CNS) was > 100 µM, the TGI (T-47D breast) was > 100 µM and the TGI (SNB-19 CNS) was > 100 µM. The TGI (A498 renal) was > 100 µM, the TGI (SF-295 CNS) was > 100 µM and the TGI (RXF 393 renal) was > 100 µM. The TGI (MALME-3M melanoma) was > 100 µM, the TGI (OVCAR-3 ovarian) was > 100 µM and the TGI (UO-31 renal) was > 100 µM. For the same compound, the TGI (M14 melanoma) was > 100 µM, the TGI (SK-OV-3 ovarian) was > 100 µM and the TGI (HCT-15 colon) was > 100 µM. The TGI (HOP-62 NSCLC) was > 100 µM, the TGI (HT29 colon) was > 100 µM and the TGI (HL-60(TB) leukemia) was > 100 µM. For the same compound, the TGI (HCT-116 colon) was > 100 µM, the TGI (DU-145 prostate) was > 100 µM and the TGI (HS 578T breast) was > 100 µM.

With `Cc1cn(C(=O)NC23CC4CC(CC(C4)C2)C3)c(=O)[nH]c1=O` the TGI (CCRF-CEM leukemia) was 74.5 µM, the TGI (MDA-MB-435) was > 100 µM and the TGI (NCI-H23 lung) was > 100 µM. The TGI (SK-MEL-2 melanoma) was 76.3 µM, the TGI (TK-10 renal) was > 100 µM and the TGI (HOP-92 NSCLC) was > 100 µM. For the same compound, the TGI (U251 CNS) was > 100 µM, the TGI (CAKI-1 renal) was > 100 µM and the TGI (COLO 205 colon) was 75.5 µM. For the same compound, the TGI (MOLT-4 leukemia) was 89.1 µM, the TGI (MCF7 breast) was > 100 µM and the TGI (SNB-75 CNS) was > 100 µM. For the same compound, the TGI (SW-620 colon) was > 100 µM, the TGI (BT-549 breast) was 86.1 µM and the TGI (786-0 renal) was > 100 µM. The TGI (MDA-MB-231 breast) was 61.3 µM, the TGI (SN12C renal) was > 100 µM and the TGI (PC-3 prostate) was > 100 µM. For the same compound, the TGI (NCI/ADR-RES ovarian) was 86.6 µM, the TGI (ACHN renal) was 94.1 µM and the TGI (MDA-N) was > 100 µM. For the same compound, the TGI (OVCAR-5 ovarian) was > 100 µM, the TGI (K-562 leukemia) was > 100 µM and the TGI (RPMI-8226 leukemia) was 75.1 µM. The TGI (NCI-H226 lung) was 65.7 µM, the TGI (OVCAR-8 ovarian) was > 100 µM and the TGI (KM12 colon) was > 100 µM. For the same compound, the TGI (EKVX NSCLC) was 65.5 µM, the TGI (SF-268 CNS) was > 100 µM and the TGI (UACC-62 melanoma) was 71.4 µM. The TGI (OVCAR-4 ovarian) was > 100 µM, the TGI (NCI-H460 lung) was > 100 µM and the TGI (HCC-2998 colon) was > 100 µM. For the same compound, the TGI (LOX IMVI melanoma) was 83 µM, the TGI (SK-MEL-5 melanoma) was > 100 µM and the TGI (UACC-257 melanoma) was > 100 µM. For the same compound, the TGI (A549 NSCLC) was > 100 µM, the TGI (SK-MEL-28 melanoma) was > 100 µM and the TGI (SF-539 CNS) was > 100 µM. The TGI (T-47D breast) was > 100 µM, the TGI (SNB-19 CNS) was > 100 µM and the TGI (SF-295 CNS) was > 100 µM. The TGI (RXF 393 renal) was > 100 µM, the TGI (MALME-3M melanoma) was > 100 µM and the TGI (OVCAR-3 ovarian) was > 100 µM. The TGI (UO-31 renal) was > 100 µM, the TGI (M14 melanoma) was > 100 µM and the TGI (SK-OV-3 ovarian) was > 100 µM. The TGI (HCT-15 colon) was 80.3 µM, the TGI (HOP-62 NSCLC) was > 100 µM and the TGI (HT29 colon) was > 100 µM. For the same compound, the TGI (HL-60(TB) leukemia) was 51.2 µM, the TGI (HCT-116 colon) was > 100 µM and the TGI (DU-145 prostate) was > 100 µM. For the same compound, the TGI (HS 578T breast) was > 100 µM.

For `O=C(O)c1ccc(C=C2Sc3ccccc3S2)cc1`, the TGI (CCRF-CEM leukemia) was > 100 µM, the TGI (MDA-MB-435) was 44.9 µM and the TGI (NCI-H23 lung) was > 100 µM. For the same compound, the TGI (SK-MEL-2 melanoma) was > 100 µM, the TGI (TK-10 renal) was > 100 µM and the TGI (HOP-92 NSCLC) was > 100 µM. For the same compound, the TGI (U251 CNS) was > 100 µM, the TGI (CAKI-1 renal) was > 100 µM and the TGI (COLO 205 colon) was > 100 µM. The TGI (MOLT-4 leukemia) was > 100 µM, the TGI (MCF7 breast) was > 100 µM and the TGI (SW-620 colon) was > 100 µM. The TGI (BT-549 breast) was > 100 µM, the TGI (786-0 renal) was > 100 µM and the TGI (MDA-MB-231 breast) was > 100 µM. The TGI (SN12C renal) was > 100 µM, the TGI (PC-3 prostate) was > 100 µM and the TGI (NCI/ADR-RES ovarian) was > 100 µM. The TGI (ACHN renal) was 74.2 µM, the TGI (MDA-N) was 81.2 µM and the TGI (OVCAR-5 ovarian) was > 100 µM. The TGI (K-562 leukemia) was > 100 µM, the TGI (RPMI-8226 leukemia) was > 100 µM and the TGI (IGROV1 ovarian) was > 100 µM. The TGI (NCI-H226 lung) was > 100 µM, the TGI (OVCAR-8 ovarian) was > 100 µM and the TGI (KM12 colon) was > 100 µM. The TGI (NCI-H522 lung) was > 100 µM, the TGI (EKVX NSCLC) was > 100 µM and the TGI (SF-268 CNS) was > 100 µM. The TGI (UACC-62 melanoma) was 95.2 µM, the TGI (OVCAR-4 ovarian) was > 100 µM and the TGI (NCI-H460 lung) was > 100 µM. The TGI (HCC-2998 colon) was 42.5 µM, the TGI (LOX IMVI melanoma) was > 100 µM and the TGI (SK-MEL-5 melanoma) was > 100 µM. The TGI (UACC-257 melanoma) was > 100 µM, the TGI (A549 NSCLC) was > 100 µM and the TGI (SF-539 CNS) was > 100 µM. For the same compound, the TGI (T-47D breast) was > 100 µM, the TGI (SNB-19 CNS) was > 100 µM and the TGI (A498 renal) was 39.6 µM. The TGI (SF-295 CNS) was > 100 µM, the TGI (RXF 393 renal) was > 100 µM and the TGI (MALME-3M melanoma) was > 100 µM. For the same compound, the TGI (OVCAR-3 ovarian) was 83 µM, the TGI (UO-31 renal) was > 100 µM and the TGI (M14 melanoma) was > 100 µM. For the same compound, the TGI (SK-OV-3 ovarian) was > 100 µM, the TGI (HCT-15 colon) was > 100 µM and the TGI (HOP-62 NSCLC) was > 100 µM. For the same compound, the TGI (HT29 colon) was > 100 µM, the TGI (HL-60(TB) leukemia) was > 100 µM and the TGI (HCT-116 colon) was > 100 µM. The TGI (DU-145 prostate) was > 100 µM and the TGI (HS 578T breast) was > 100 µM.
